# According to patent publication US8383816B2, “Aryl-quinolyl compounds and their use” (Cancer Research Technology Limited, priority 2008, dated 2013):
# Tests used:
# [1] = tested on: pERK; assay: Cell Based Phospho-ERK Assay; conditions: 6 h, cells incubated with test compound for 6 hours
# Method: Biological Methods—Cell Based Phosho-ERK Assay
# Compounds were assessed using a cell-based assay which was performed according to the following protocol.
# Plate out 16,000 cells/well in 99 μL medium in a 96-well plate.
# 1. Add 1 μL inhibitor to the cells […].
# 2. Incubate the cells with test compound for 6 hours at 37° C.
# 3. Aspirate off the solution from all of the wells.
# 4. Fixate the cells with 100 μL 4% formaldehyde/0.25% Triton X-100 PBS per well.
# 5. Incubate the plate for 1 hour at 4° C.
# 6. Aspirate off the fixing solution and add 300 μL TBS per well.
# 7. Leave the plate overnight at 4° C.
# 1. Wash the plate 2× with 200 μL PBS per well.
# 2. Block with 100 μL 5% dried milk in TBS.
# 3. Incubate the plate for 20 minutes at 37° C.
# 4. Wash the plate 2× with 0.1% tween/H2O.
# 5. Add 50 μL of 3 μg/mL primary antibody pERK (Sigma M8159), diluted in 5% milk powder/TBS, to each well.
# 6. Incubate the plate for 2 hours at 37° C.
# 7. Wash the plate 3× with 0.1% tween/H2O.
# 8. Add 50 μL of 0.45 μg/mL secondary Europium-labelled anti-mouse antibody (Perkin Elmer) to each well.
# 9. Incubate the plate for 1 hour at 37° C.
# 10. Wash the plate 3× with 0.1% tween/H2O.
# 11. Add 100 μL enhancement solution (Perkin Elmer) to each well.
# 12. Leave the plate for approximately 10 minutes at room temperature before gently shaking the plate.
# 13. Read Europium Time Resolved Fluorescence in Victor2.
# 14. Wash the plate 2× with 0.1% tween/H2O.
# 15. Measure the protein concentration with BCA (Sigma) by adding 200 μL of solution per well.
# 16. Incubate the plate for 30 minutes at 37° C.
# 17. Read absorbance levels at 570 nm in a plate reader.
# Note that Europium counts are normalised for protein levels by dividing counts by absorbance.
# (§1) Values for the blank (no cells) are subtracted from all values. The DMSO controls are set as 100% activity and assay points (the response) are calculated as a percentage of the DMSO control. Data are plotted using Graphpad Prism software and a non-linear regression line is calculated using a variable slope sigmoidal dose-response equation (Y=Bottom+(Top−Bottom)/(1+10^((LogEC50−X)*HillSlope)) where X is the logarithm of concentration. Y is the response). The IC50 generated by this procedure is the concentration of the drug that produces a percentage control fluorescence value midway between the saturation, and zero-effect plateaus. Three independent assays are usually performed and the mean IC50 is reported.
# [2] = tested on: WM266.4 melanoma cells; assay: SRB Cell Proliferation Assay (SRB GI50); assay type: cell-based; conditions: Homo sapiens, WM 266-4, 144 h, 6 days growth
# Method: Biological Methods—SRB Cell Proliferation Assay (SRB GI50)
# Cultures of WM266.4 melanoma cells are routinely cultured in DMEM/10% foetal bovine serum, at 37° C., in 5% CO2 water saturated atmosphere. Cultures are maintained in exponential growth phase by sub-culturing before having become confluent (3-5 day intervals). Single cell suspensions are prepared by harvesting an 80 cm^2 tissue culture flask with 5 mL commercial trypsin EDTA. After 5 minutes, the detached cells are mixed with 5 mL fully complemented culture medium and centrifugally pelleted (1000 rpm for 7 minutes). After aspirating the supernatant, the cell pellet is re-suspended in 10 mL fresh medium and the cells fully disaggregated by drawing the whole volume up/down 5 times through a 19-gauge needle. The concentration of the cells is determined using a haemocytometer (1/10 dilution). A suitable volume to give at least a 2-fold excess for the number of tests being conducted, typically 100-200 mL, is prepared by diluting the cell suspension to 10,000/mL, and 100 μL/well dispensed into 96 well plates using a programmable 8-channel peristaltic pump, giving 1000 cells/well, leaving column 12 blank. The plates are returned to the incubator for 24 hours to allow the cells to re-attach.
# The compounds being tested are prepared at 20 mM in dimethylsulphoxide. Aliquots (200 μL) are diluted into 20 mL culture medium giving 200 μM, and 10 serial dilutions of 3× performed by transferring 5 mL to 10 mL. Aliquots (100 μL) of each dilution are added to the wells, using an 8-channel pipettor, thus performing a final further 2× dilution, and giving doses ranging from 100 μM to 0.005 μM. Column 11 receives plain culture medium only. Each compound is tested in quadruplicate, each replicate being the average of four wells, and two plates per compound.
# After a further 6 days growth, the plates are emptied, and the cells are fixed in 10% trichloroacteic acid for 10 minutes on ice. After thorough rinsing in running tap water, the plates are dried, and stained by adding 50 μL of a solution of 0.1% sulphorhodamine-B in 1% acetic acid, for 10 minutes at room temperature. The stain is poured out and the plates thoroughly rinsed under a stream of 1% acetic acid, thus removing unbound stain, and dried. The bound stain is taken into solution by addition of 150 μL Tris buffer pH 8, followed by 10 minutes on a plate-shaker (approximately 500 rpm). The absorbance at 540 nm in each well (being proportional to the number of cells present) is determined using a plate reader.
# After averaging the results in rows A-D and E-H, the blank value (row 12) is subtracted, and results expressed as percentage of the untreated value (row 11). […] The GI50 generated by this procedure is the concentration of the drug that produces a percentage control A540 midway between the saturation, and zero-effect plateaus.
# [3] = target: B-RAF (Homo sapiens, UniProt P15056, V600E); assay: DELFIA Kinase Assay; assay type: biochemical; conditions: 100 μM ATP
# Method: Biological Methods—DELFIA Kinase Assay
# Compounds were assessed by a kinase assay performed according to the following protocol.
# DELFIA Kinase Buffer (DKB):
# DKB1 (DKB with B-RAF and MEK Protein):
# Combine 4950 μL of DKB and 50 μL of 2.5 mg/ml GST-MEK stock (to give […] of MEK per 40 μL). Then add 22.5 μL of B-RAF to give ˜0.2 μL of B-RAF per 40 μL.
# DKB2 (DKB with MEK Protein):
# Combine 4950 μL of DKB and 50 μL of 2.5 mg/ml GST-MEK stock (to give 1 mg of MEK per 40 μL). Use 500 μL of this for the blow out (BO) and the empty vector (EV) control.
# 100 mM stock, dilute to 500 μM to give 100 μM final concentration in assay.
# Inhibitors (Test Compounds):
# Phospho-MEK½ CST #9121S diluted 1:1000 in DELFIA assay buffer (AB). Preincubate antibody in the AB for 30 minutes at room temperature prior to use.
# Anti-rabbit-Eur labelled secondary Perkin Elmer #AD0105 diluted 1:1000 in DELFIA assay buffer (AB). Preincubate antibody in the AB for 30 minutes at room temperature prior to use. (Primary and secondary antibodies were incubated together.)
# 1. Preblock wells with 5% milk in TBS for 1 hour.
# 2. Wash wells with 3× with 200 μL TBS.
# 3. Plate out 40 μL of DKB1 for all inhibitors (test compounds), DMSO control, and optionally other control compounds.
# 4. Plate out 40 μL of DKB2 for BO and EV wells.
# 5. Add inhibitors (test compounds) at 0.5 μL per well according to desired plate layout.
# 6. Add 0.5 μL DMSO to vehicle control wells.
# 7. Add 2 μL of B-RAF to BO and EV wells.
# 8. Pre-incubate with inhibitors (test compounds) for 10 minutes at room temperature with shaking.
# 9. Add 10 μL of 500 μM ATP stock, in DKB, to give 100 μM assay concentration.
# 10. Seal plates with TopSeal and incubate at room temperature with shaking for 45 minutes.
# 11. Wash plates 3× with 200 μL 0.1% Tween20/Water to terminate reaction.
# 12. Add 50 μL per well of antibody mix and incubate for 1 hour at room temperature with shaking.
# 13. Wash plates 3× with 200 μL 0.1% Tween20/Water.
# 14. Add 100 μL DELFIA enhancement solution per well, cover in foil, and incubate at room temperature for 30 minutes with shaking.
# 15. Read on Victor using Europium protocol.
# as §1, with “(Empty Vector)” for “(no cells)”
# B-RAF, sequence (P15056 whole entry V600E): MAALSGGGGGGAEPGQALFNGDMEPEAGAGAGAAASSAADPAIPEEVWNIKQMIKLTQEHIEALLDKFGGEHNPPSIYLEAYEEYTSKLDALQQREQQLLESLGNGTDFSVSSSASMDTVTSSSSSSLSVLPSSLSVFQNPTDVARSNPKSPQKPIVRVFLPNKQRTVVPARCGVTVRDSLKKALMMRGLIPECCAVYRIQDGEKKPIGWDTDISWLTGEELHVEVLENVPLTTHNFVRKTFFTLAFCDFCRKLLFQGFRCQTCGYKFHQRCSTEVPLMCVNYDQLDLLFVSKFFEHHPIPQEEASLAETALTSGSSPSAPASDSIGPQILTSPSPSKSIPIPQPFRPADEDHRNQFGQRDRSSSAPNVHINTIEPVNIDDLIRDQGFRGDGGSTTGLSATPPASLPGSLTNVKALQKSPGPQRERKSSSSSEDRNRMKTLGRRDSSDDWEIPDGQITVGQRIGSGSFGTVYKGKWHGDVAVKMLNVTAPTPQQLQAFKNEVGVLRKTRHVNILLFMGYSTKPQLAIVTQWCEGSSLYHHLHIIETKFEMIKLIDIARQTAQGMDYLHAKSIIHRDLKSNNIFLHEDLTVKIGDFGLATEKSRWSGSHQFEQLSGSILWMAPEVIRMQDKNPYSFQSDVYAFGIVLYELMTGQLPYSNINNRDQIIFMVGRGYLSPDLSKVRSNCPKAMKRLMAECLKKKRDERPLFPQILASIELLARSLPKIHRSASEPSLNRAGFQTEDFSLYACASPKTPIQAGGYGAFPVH
smiles,measurement,setting,value
C=CCn1nc(C(C)(C)C)cc1NC(=O)Nc1ccc(Oc2ccnc3[nH]c(=O)cnc23)c2cccnc12 [BB-013],IC50,[1],≤ 10 µM
same,GI50,[2],≤ 10 µM
same,IC50,[3],≤ 1 µM
